The assay deals with Saccharomyces cerevisiae ABC16-Green Monster. Conditions: 18 h; 30 °C; YPD. The essentials: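 Log-phase cultures of the drug-sensitive S. cerevisiae ABC16-Green Monster strain in YPD were dispensed at 200 µl per well into 96-well plates. They were exposed to eight 1:2 compound dilutions (final 0.1–150 μM) in biological duplicate, with untreated cultures in parallel, at 30 °C for 18 h. OD600 was read at 0 h and 18 h. IC50 was fitted to the background-subtracted OD600 by variable-slope nonlinear regression of log(inhibitor) versus response in GraphPad Prism.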

Each structure is given as a SMILES string.

Consider `Cc1c(N)nc(C(CC(N)=O)NCC(N)C(N)=O)nc1C(=O)NC(C(=O)NC(C)C(O)C(C)C(=O)NC(C(=O)NCCc1nc(-c2nc(C(=O)NCCC[S+](C)C)cs2)cs1)C(C)O)C(OC1OC(CO)C(O)C(O)C1OC1OC(CO)C(O)C(OC(N)=O)C1O)c1cnc[nH]1` (configuration not stated) [Bleomycin (JP1)], for which the IC50 growth inhibition was over 75 µM.

For the compound `COC(=O)C1=C(C)NC(C)=C(C(=O)OCC(C)C)C1c1ccccc1[N+](=O)[O-]` (configuration not stated) [Nisoldipine], the IC50 growth inhibition worked out at 41 µM.

Compound `CC[C@H]1OC(=O)[C@H](C)[C@@H](O[C@H]2C[C@@](C)(OC)[C@@H](O)[C@H](C)O2)[C@H](C)[C@@H](O[C@@H]2O[C@H](C)C[C@H](N(C)C)[C@H]2O)[C@](C)(O)C[C@@H](C)C(=O)[C@H](C)[C@@H](O)[C@]1(C)O` [Erythromycin] came in with an IC50 growth inhibition of over 75 µM.

As for `N=C(N)c1ccc(OCCCCCOc2ccc(C(=N)N)cc2)cc1` [Pentamidine], the IC50 growth inhibition was found to be 85.9 µM.

`N=C(N)c1ccc(OCCCCCOc2ccc(C(=N)N)cc2)cc1` yielded an IC50 growth inhibition of 83.8 µM.

Regarding `COc1cc(C=Cc2ccc(O)cc2)cc(OC)c1` [Pterostilbene], the IC50 growth inhibition came out at 29.4 µM.

Compound `O=C(O)[C@]1(Cc2cccc(Nc3nccs3)n2)CC[C@@H](Oc2cccc(Cl)c2F)CC1` [MK-5108] yielded an IC50 growth inhibition of over 75 µM.

`COc1cc2c(c(OC)c1OC)-c1ccc(OC)c(=O)cc1C(NC(C)=O)CC2` (configuration not stated) [Colchicine] had an IC50 growth inhibition of over 75 µM.

The compound `CC(=O)OC1C(=O)C2(C)C(O)CC3OCC3(OC(C)=O)C2C(OC(=O)c2ccccc2)C2(O)CC(OC(=O)C(O)C(NC(=O)c3ccccc3)c3ccccc3)C(C)=C1C2(C)C` (configuration not stated) [Paclitaxel] showed an IC50 growth inhibition of over 75 µM.

For `Cn1cc(CN2CCc3c(c(C(=O)NCc4nccs4)nn3Cc3ccccc3)C2)c2ccccc21`, the IC50 growth inhibition was 109 µM.

The compound `Cc1cc(C(=O)Cn2cnc3ccccc3c2=O)c(C)n1-c1ccccc1` returned an IC50 growth inhibition of 61 µM.

`CN(C)c1oc(-c2ccc(Cl)cc2Cl)nc1[P+](c1ccccc1)(c1ccccc1)c1ccccc1` [GNF-Pf-2545] returned an IC50 growth inhibition of 4.53 µM.

Consider `Cc1cc(F)c(C(=O)Nc2cccc(-c3nncn3C(C)C)n2)cc1-n1cnc(C2CC2)c1` [GS-4997], for which the IC50 growth inhibition is over 75 µM.

`O=C(Nc1ccc([N+](=O)[O-])cc1Cl)c1cc(Cl)ccc1O` [Niclosamide] gave an IC50 growth inhibition of 1.53 µM.

On to `O=P(O)(O)C(O)(Cn1ccnc1)P(=O)(O)O` [Zoledronate], for which the IC50 growth inhibition is over 75 µM.

`OC(CNC1CCCCC1)Cn1c2ccc(I)cc2c2cc(I)ccc21` (configuration not stated) came in with an IC50 growth inhibition of 3.98 µM.

The compound `CN[C@H]1C[C@@H](N)[C@H](O)[C@@H](O[C@@H]2O[C@H](CO)[C@H](O)[C@@H]3O[C@@]4(O[C@H]23)O[C@H]([C@H](N)CO)[C@H](O)[C@H](O)[C@H]4O)[C@@H]1O` [Hygromycin B] had an IC50 growth inhibition of 13.8 µM.

In turn, `Clc1cccc(Nc2ncc(-c3ccc4c(c3)OCCCO4)s2)c1` returned an IC50 growth inhibition of 15.4 µM.

Turning to `Cc1cc(C)n(-c2ccc(CN3c4ccc(S(N)(=O)=O)cc4CC3C)cc2)n1` (configuration not stated), the IC50 growth inhibition worked out at 129 µM.

In the case of `Cc1cc(NCCc2ccccc2)nc(NC(=N)Nc2ccc(Cl)cc2)n1`, the IC50 growth inhibition came out at 53.8 µM.

Consider `CN1CCC(NCc2cccc(-c3ccc(S(=O)(=O)NCc4ccccc4)cc3)c2)CC1`, for which the IC50 growth inhibition was determined as 50.8 µM.

The compound `CCC(=C(CC)c1ccc(O)cc1)c1ccc(O)cc1` [Diethylstilbestrol] came in with an IC50 growth inhibition of 5.86 µM.

On to `O=C1NCN(c2ccccc2)C12CCN(CCCC(c1ccc(F)cc1)c1ccc(F)cc1)CC2` [Fluspirilene], for which the IC50 growth inhibition is 23.3 µM.

With `c1ccc(CNc2nc(Nc3ccccc3)nc3ccccc23)cc1`, the IC50 growth inhibition amounted to 8.62 µM.

Consider `O=C(NCCc1ccccc1)c1cc(-c2cccnc2)cnc1NCC1CC1`, for which the IC50 growth inhibition was determined as 15.9 µM.

Take `CCC1(O)CC2CN(CCc3c([nH]c4ccccc34)C(C(=O)OC)(c3cc4c(cc3OC)N(C)C3C(O)(C(=O)OC)C(OC(C)=O)C5(CC)C=CCN6CCC43C65)C2)C1` (configuration not stated) [Vinblastine]: the IC50 growth inhibition is over 75 µM.

The compound `CN(CC1COc2ccccc2O1)C(=O)Nc1nc2ccccc2s1` (configuration not stated) displayed an IC50 growth inhibition of 48 µM.

Turning to `CCOc1cccc2sc(N(Cc3cccnc3)C(=O)C3CCCCC3)nc12`, the IC50 growth inhibition was determined as 25.7 µM.

Consider `CC1(C)C2CCC(C2)C1(C)NC(=S)NN=Cc1ccccn1` (configuration not stated) [GNF-Pf-5458], for which the IC50 growth inhibition was found to be 3.1 µM.

The compound `CC(c1ncncc1F)C(O)(Cn1cncn1)c1ccc(F)cc1F` (configuration not stated) [Voriconazole] showed an IC50 growth inhibition of 0.18 µM.

In the case of `CC(C)c1ccc(/C=C2\CCc3c2nc2ccccc2c3C(=O)O)cc1`, the IC50 growth inhibition was 19.9 µM.

The compound `CC1COC(Cn2cncn2)(c2ccc(Oc3ccc(Cl)cc3)cc2Cl)O1` (configuration not stated) [Difenoconazole] displayed an IC50 growth inhibition of 3.17 µM.

For the compound `CC1(C)OB(O)c2cc(NC(=O)c3ccc(-n4cccn4)cc3Cl)ccc21` [AN7973], the IC50 growth inhibition worked out at 0.355 µM.

`COc1ccc(/C=C/c2ccc3c(Cl)cc(Cl)c(O)c3n2)cc1` returned an IC50 growth inhibition of 22.3 µM.

Regarding `O=C1N=c2ccccc2=C1NNC(=S)N1CCOCC1`, the IC50 growth inhibition came to 16.4 µM.

With `CN(Cc1ccc(Cl)s1)C(=O)Cn1ncc(Br)c(Br)c1=O`, the IC50 growth inhibition came to 24.2 µM.

Take `C/C=C/[C@H]1O[C@@](O)([C@@H](C)[C@H](O)[C@H](C)[C@H]2OC(=O)/C(OC)=C\C(C)=C\[C@@H](C)[C@@H](O)[C@@H](CC)[C@@H](O)[C@H](C)C/C(C)=C/C=C/[C@@H]2OC)C[C@@H](O[C@H]2C[C@@H](O)[C@H](OC(=N)O)[C@@H](C)O2)[C@@H]1C` [Concanamycin A]: the IC50 growth inhibition came out at 6.1 µM.

In turn, `CN(CC=CC#CC(C)(C)C)Cc1cccc2ccccc12.Cl` [Terbinafine] showed an IC50 growth inhibition of 76.9 µM.

`O=C(Nc1cccc(C(F)(F)F)c1)c1cc(Cl)ccc1O`: the IC50 growth inhibition amounted to 4.18 µM.

With `O=C1CCc2ccc(OCCCCN3CCN(c4cccc(Cl)c4Cl)CC3)cc2N1` [Aripiprazole], the IC50 growth inhibition came to 9.31 µM.

The compound `Cc1nc(-c2ccccn2)nc(N2CCC(Cc3ccccc3)C2)c1Cl` (configuration not stated) had an IC50 growth inhibition of 21 µM.

In the case of `CC(C)Oc1cc(Nc2nc(N[C@@H](C)c3ccc(F)cc3)c(C#N)cc2F)[nH]n1` [AZD-6918], the IC50 growth inhibition is over 75 µM.

For the compound `O=CN(O)CCCP(=O)(O)O` [Fosmidomycin], the IC50 growth inhibition is over 75 µM.

`CCCc1cc(N2CCN(C)CC2)n2ncc(-c3ccccc3)c2n1`: the IC50 growth inhibition worked out at 47 µM.

Turning to `CCCn1c(NC(=O)c2ccc3ccccc3n2)nc2ccccc21`, the IC50 growth inhibition was determined as 40 µM.

The compound `C=C1CCC(O)CC1=CC=C1CCCC2(C)C1CCC2C(C)CCCC(C)(C)O` (configuration not stated) [Calcifediol] came in with an IC50 growth inhibition of over 150 µM.

In the case of `COc1cc(NC(C)CCCN)c2ncccc2c1` (configuration not stated) [Primaquine], the IC50 growth inhibition was found to be 107 µM.

In turn, `Cc1ccc(-n2nc(C(C)(C)C)cc2NC(=O)NCc2cc(F)ccc2Oc2ccc3c(cnn3CCO)c2)cc1` [Pexmetinib] had an IC50 growth inhibition of over 75 µM.

`CC1(C)c2nc(-c3ccc(F)cc3)c(Nc3ccc(Cl)cc3)n2CCN1C(=O)CN` [GNF179] showed an IC50 growth inhibition of 38 µM.

`CC[C@@]1(O)C[C@H](O[C@H]2C[C@H](N(C)C)[C@H](O[C@H]3C[C@H](O)[C@H](O[C@H]4CCC(=O)[C@H](C)O4)[C@H](C)O3)[C@H](C)O2)c2c(cc3c(c2O)C(=O)c2c(O)cccc2C3=O)[C@H]1C(=O)OC` [Aclarubicin] had an IC50 growth inhibition of 4.79 µM.

Consider `COc1cc(OC)cc(C(=O)NCC2Cc3cc(Cl)cc(-c4ccncc4)c3O2)c1` (configuration not stated), for which the IC50 growth inhibition amounted to 14.4 µM.

`Cc1cc(Nc2nc(N[C@@H](C)c3ncc(F)cn3)ncc2Cl)n[nH]1` [AZD-1480] gave an IC50 growth inhibition of 58.6 µM.

Turning to `CS(=O)(=O)CCNCc1ccc(-c2ccc3ncnc(Nc4ccc(OCc5cccc(F)c5)c(Cl)c4)c3c2)o1` [lapatinib], the IC50 growth inhibition came to 5.96 µM.

Take `Cc1c(C)n(CCCN(C)C)c2ncn3nc(COc4ccccc4)nc3c12`: the IC50 growth inhibition was found to be 39.6 µM.

In turn, `Cc1nc([P+](c2ccccc2)(c2ccccc2)c2ccccc2)c(SCc2ccccc2)o1` [GNF-Pf-3891] had an IC50 growth inhibition of 5.85 µM.

In the case of `O=C(NC1CC1)c1ccc(N2CCOc3ccc(Cl)cc32)s1`, the IC50 growth inhibition was found to be 32.6 µM.

Compound `COc1cc(N2CCC(N3CCN(C)CC3)CC2)ccc1Nc1ncc(Cl)c(Nc2ccccc2P(C)(C)=O)n1` [Brigatinib] yielded an IC50 growth inhibition of over 75 µM.

In the case of `CC(C)(C)c1ccc(NC(=O)c2ccc[nH]c2=S)cc1`, the IC50 growth inhibition is 25.4 µM.

For `COc1cc(-c2cc(-c3ccc(S(C)(=O)=O)cc3)cnc2N)ccc1O`, the IC50 growth inhibition stood at 22 µM.

`CCN(CC)C(=S)SSC(=S)N(CC)CC` [Disulfiram] gave an IC50 growth inhibition of 52.9 µM.

Take `COc1ccccc1C(C)NCC(=O)Nc1cc(C(F)(F)F)ccc1Cl` (configuration not stated): the IC50 growth inhibition was 32.4 µM.

On to `COC1=CC(=O)CC(C)C12Oc1c(Cl)c(OC)cc(OC)c1C2=O` (configuration not stated) [Griseofulvin], for which the IC50 growth inhibition is over 75 µM.

The compound `CN(C)CCCN1c2ccccc2CCc2ccc(Cl)cc21.Cl` [Clomipramine] yielded an IC50 growth inhibition of 18.3 µM.

With `O=C(c1ccco1)N(CCCn1ccnc1)c1nc2c(Cl)cccc2s1`, the IC50 growth inhibition stood at 40.8 µM.

`OCCN1CCN(CCCN2c3ccccc3Sc3ccc(C(F)(F)F)cc32)CC1` [Fluphenazine] showed an IC50 growth inhibition of 30.1 µM.

Regarding `CSc1nc2cc(Oc3cccc(Cl)c3Cl)c(Cl)cc2[nH]1` [Triclabendazole], the IC50 growth inhibition is 6.29 µM.

Compound `OC1=C2C(=Nc3ccccc3SC2c2ccccc2)c2ccccc21` (configuration not stated) [GNF-Pf-4583] returned an IC50 growth inhibition of 2.54 µM.

For the origin of these results see the supplement of paper PMC8837787.
